From PMC11714206, “Massively Parallel Screening of Toll/Interleukin‐1 Receptor (TIR)‐Derived Peptides Reveals Multiple Toll‐Like Receptors (TLRs)‐Targeting Immunomodulatory Peptides” (Advanced Science, 2024)

Biological target: T1, MAL^TIR (Homo sapiens, UniProt P58753)
T1 construct: MAL (residues 79–221); 6xHis; made in house; host or cells: E. coli BL21 (DE3)
Assay: T‐Surf phage library (P8 and P3) selection against MAL^TIR, four rounds, NGS read counts
Type: binding
Settings: for P3_MAL Rank (after) / P3_MAL Rank (before): P3 library; for Population: 4th round of selection against MAL TIR, share of NGS reads; for P8_MAL Rank (after) / P8_MAL Rank (before): P8 library
How it was run: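 Four panning rounds on TIR domain adsorbed at 5 µg mL^−1; binding 1 h at 20–22 °C, elution with 100 mM HCl. Output: NGS read counts of round‐4 pools versus naïve library.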

[1] = selection against MAL TIR, rank by count after grouping
[2] = selection against MAL TIR, rank by count before grouping
[3] = selection against MAL, rank after grouping
[4] = selection against MAL, rank before grouping
[5] = P3_MAL: rank by count after grouping
[6] = P3_MAL: rank by count before grouping
[7] = 4R selection against MAL, rank after grouping
[8] = 4R selection against MAL, rank before grouping
[9] = P3_MAL pool: P3 T-Surf phage library
[10] = selection against MAL, rank by count after grouping
[11] = selection against MAL, rank by count before grouping
[12] = P8_MAL: rank by count after grouping
[13] = P8_MAL: rank by count before grouping
[14] = P8_MAL pool: P8 T-Surf phage library

T1 sequence (P58753 79-221): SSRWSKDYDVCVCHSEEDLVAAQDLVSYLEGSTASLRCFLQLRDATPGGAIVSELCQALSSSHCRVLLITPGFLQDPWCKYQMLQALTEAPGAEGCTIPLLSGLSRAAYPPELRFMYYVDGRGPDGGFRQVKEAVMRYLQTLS

Sequence: RGFLSHMRHPLQAKDH
- P3_MAL Rank (after) [1]: 281
- P3_MAL Rank (before) [2]: 2398

Sequence: RGFLSHRRYHLQAKDH
- P3_MAL Rank (after) [3]: 539
- P3_MAL Rank (before) [4]: 2396

Sequence: RGFLSKLSQHILKREK
- P3_MAL Rank (after) [1]: 283
- P3_MAL Rank (before) [2]: 894

Sequence: RGFLSNLGHHLQAKDH
- Rank (after) [5]: 440
- Rank (before) [6]: 2401

Sequence: RGFLYQAFAREGFKIFM
- P3_MAL Rank (after) [7]: 581
- P3_MAL Rank (before) [8]: 2353

Sequence: RGFMSHLRHPLQAKDH
- P3_MAL Rank (after) [7]: 616
- P3_MAL Rank (before) [8]: 2412

Sequence: RGFREGLWRLLELSKK
- Population [9]: 0.00902%
- Rank (after) [5]: 103
- Rank (before) [6]: 111

Sequence: RGFRSHLRQHLQAKDH
- P3_MAL Rank (after) [10]: 772
- P3_MAL Rank (before) [11]: 2410

Sequence: RGFTSHLYHRIQRNSN
- P3_MAL Rank (after) [7]: 605
- P3_MAL Rank (before) [8]: 2419

Sequence: RGLLSHLRHHLLGKDH
- Rank (after) [5]: 450
- Rank (before) [6]: 2429

Sequence: RGLLSQLRHHLQAKDH
- P3_MAL Rank (after) [3]: 578
- P3_MAL Rank (before) [4]: 2421

Sequence: RGVLSRLRHHLQAKDH
- P3_MAL Rank (after) [3]: 551
- P3_MAL Rank (before) [4]: 2427

Sequence: RGYLRHVRHHLQAKDH
- P3_MAL Rank (after) [7]: 657
- P3_MAL Rank (before) [8]: 2426

Sequence: RHFAGLLYDRLTKTGV
- Rank (after) [5]: 414
- Rank (before) [6]: 2563

Sequence: RHHRGPLGSDLQYHME
- P3_MAL Rank (after) [3]: 521
- P3_MAL Rank (before) [4]: 2572

Sequence: RHNFIGYLYQALYRIG
- P8_MAL Rank (after) [10]: 723
- P8_MAL Rank (before) [11]: 2174

Sequence: RKFEAYLFQALANKGI
- P8_MAL Rank (after) [1]: 208
- P8_MAL Rank (before) [2]: 2257

Sequence: RKFVAYPFQALANKGI
- P8_MAL Rank (after) [10]: 703
- P8_MAL Rank (before) [11]: 2255

Sequence: RKFWAYLFQALANKGS
- P8_MAL Rank (after) [3]: 551
- P8_MAL Rank (before) [4]: 2253

Sequence: RKGDLISDELLIAIEE
- P8_MAL Rank (after) [3]: 575
- P8_MAL Rank (before) [4]: 2300

Sequence: RLLKCTEALHQFHNWV
- P3_MAL Rank (after) [3]: 566
- P3_MAL Rank (before) [4]: 2482

Sequence: RLLKWGYPWFWDRLRFA
- Rank (after) [5]: 187
- Rank (before) [6]: 907

Sequence: RLLKWIETLHQFHSWV
- P3_MAL Rank (after) [7]: 653
- P3_MAL Rank (before) [8]: 2489

Sequence: RLLKWKDALHQFHSWV
- Population [9]: 0.0132%

Sequence: RLLKWKDALYEAANLS
- Rank (after) [5]: 110
- Rank (before) [6]: 342

Sequence: RLLKWKEALHHVLQK
- P3_MAL Rank (after) [10]: 690
- P3_MAL Rank (before) [11]: 2502

Sequence: RLLKWKEALHQFHSSL
- Rank (after) [5]: 172
- Rank (before) [6]: 2515

Sequence: RLLKWKEALHQFHSWV
- Population [9]: 0.00451%
- Rank (after) [12]: 115
- Rank (before) [13]: 655

Sequence: RLLKWKEALHQFIAG
- P3_MAL Rank (after) [1]: 264
- P3_MAL Rank (before) [2]: 2518

Sequence: RLLKWKEALHQFQTWL
- P3_MAL Rank (after) [10]: 701
- P3_MAL Rank (before) [11]: 2516

Sequence: RLLKWKEALKQRAL
- P3_MAL Rank (after) [3]: 518
- P3_MAL Rank (before) [4]: 2525

Sequence: RLLKWKEALQQFHSGV
- Rank (after) [5]: 177
- Rank (before) [6]: 2497

Sequence: RLLKWKEALQQVHSWV
- Rank (after) [5]: 148
- Rank (before) [6]: 2470

Sequence: RLLKWKEALTAAANLSGW
- P3_MAL Rank (after) [7]: 642
- P3_MAL Rank (before) [8]: 2524

Sequence: RLLKWKEEMHQFHSWV
- P3_MAL Rank (after) [1]: 206
- P3_MAL Rank (before) [2]: 2531

Sequence: RLLKWKKRCISFIAG
- Rank (after) [5]: 400
- Rank (before) [6]: 2492

Sequence: RLLKWNEELHLFHSWV
- P3_MAL Rank (after) [7]: 612
- P3_MAL Rank (before) [8]: 2490

Sequence: RLLKWQQAMHQFHRWV
- P3_MAL Rank (after) [3]: 563
- P3_MAL Rank (before) [4]: 2488

Sequence: RLLKWWDSLTQASNI
- P3_MAL Rank (after) [10]: 727
- P3_MAL Rank (before) [11]: 2485

Sequence: RLLNGKKRCISFIAG
- P3_MAL Rank (after) [1]: 261
- P3_MAL Rank (before) [2]: 2475

Sequence: RLLNWKEALHQFHSWV
- Population [9]: 0.00338%

Sequence: RLLNWKEARHQFHSWV
- P3_MAL Rank (after) [1]: 243
- P3_MAL Rank (before) [2]: 2479

Sequence: RLMKWKEALHPFHSWV
- Rank (after) [5]: 180
- Rank (before) [6]: 2553

Sequence: RLQECKEALHQFHSWV
- P3_MAL Rank (after) [10]: 737
- P3_MAL Rank (before) [11]: 2549

Sequence: RLQEWRETLCQGHSRV
- P3_MAL Rank (after) [7]: 650
- P3_MAL Rank (before) [8]: 2550

Sequence: RLQKWKEALHQIHSRV
- Rank (after) [5]: 189
- Rank (before) [6]: 2551

Sequence: RLRKWKEALHQFHSWG
- P3_MAL Rank (after) [7]: 636
- P3_MAL Rank (before) [8]: 2547

Sequence: RLRKWKEALQQFHSWV
- Rank (after) [5]: 139
- Rank (before) [6]: 2548

Sequence: RLRKWKGALHHFLSWG
- P3_MAL Rank (after) [10]: 728
- P3_MAL Rank (before) [11]: 2544

Sequence: RLWDRLRYLMPRNNHH
- P3_MAL Rank (after) [3]: 571
- P3_MAL Rank (before) [4]: 2325

Sequence: RNFAGLLYDRLTKWA
- P3_MAL Rank (after) [7]: 630
- P3_MAL Rank (before) [8]: 2594

Sequence: RNFAGQLAGLTLQNGDEGK
- P3_MAL Rank (after) [7]: 607
- P3_MAL Rank (before) [8]: 2604

Sequence: RNFGNSCVPCWANRR
- Rank (after) [12]: 392
- Rank (before) [13]: 2239

Sequence: RNFGVYLFQALANKGI
- Rank (after) [12]: 409
- Rank (before) [13]: 2238

Sequence: RNFMAYLFQALAHKGI
- P8_MAL Rank (after) [1]: 202
- P8_MAL Rank (before) [2]: 2241

Sequence: RNFMSHLYQGLKNRGIFTF
- P3_MAL Rank (after) [3]: 502
- P3_MAL Rank (before) [4]: 2612

Sequence: RNFVADLFPALPNKGI
- P8_MAL Rank (after) [3]: 566
- P8_MAL Rank (before) [4]: 2232

Sequence: RNFVADLFQALADKGI
- P8_MAL Rank (after) [7]: 666
- P8_MAL Rank (before) [8]: 2308

Sequence: RNFVADLYQALANKGI
- Rank (after) [12]: 131
- Rank (before) [13]: 2186

Sequence: RNFVAHLFQALANKAI
- P8_MAL Rank (after) [7]: 667
- P8_MAL Rank (before) [8]: 2233

Sequence: RNFVAQLKRALANKAI
- P8_MAL Rank (after) [3]: 499
- P8_MAL Rank (before) [4]: 2310

Sequence: RNFVAYLFKALANTGI
- P8_MAL Rank (after) [3]: 526
- P8_MAL Rank (before) [4]: 2219

Sequence: RNFVAYLFQALADKGV
- P8_MAL Rank (after) [1]: 273
- P8_MAL Rank (before) [2]: 2198

Sequence: RNFVAYLFQALAHKSI
- Rank (after) [12]: 183
- Rank (before) [13]: 2199

Sequence: RNFVAYLFQALAKKGS
- P8_MAL Rank (after) [7]: 591
- P8_MAL Rank (before) [8]: 2191

Sequence: RNFVAYLFQALAKPA
- Rank (after) [12]: 164
- Rank (before) [13]: 2209

Sequence: RNFVAYLFQALANIGI
- Population [14]: 0.00371%

Sequence: RNFVAYLFQALANKSI
- Population [14]: 0.00309%

Sequence: RNFVAYLFQALANTSI
- P8_MAL Rank (after) [7]: 585
- P8_MAL Rank (before) [8]: 2212

Sequence: RNFVAYLFQELANKGI
- Population [14]: 0.00463%

Sequence: RNFVAYLFQGLANKVI
- Rank (after) [12]: 427
- Rank (before) [13]: 2195

Sequence: RNFVAYLFRALANKGI
- Population [14]: 0.00371%

Sequence: RNFVAYLFRARANKGI
- P8_MAL Rank (after) [1]: 225
- P8_MAL Rank (before) [2]: 2193

Sequence: RNFVAYLLQALAHKCI
- Rank (after) [12]: 420
- Rank (before) [13]: 2221

Sequence: RNFVAYLLQALANKSI
- Rank (after) [12]: 405
- Rank (before) [13]: 2222

Sequence: RNFVAYLVQALAKKGI
- Rank (after) [12]: 160
- Rank (before) [13]: 2225

Sequence: RNFVRICFRRWRIKA
- P8_MAL Rank (after) [10]: 687
- P8_MAL Rank (before) [11]: 2235

Sequence: RNFWRIFFRRWPIKG
- P8_MAL Rank (after) [10]: 714
- P8_MAL Rank (before) [11]: 2184

Sequence: RNIVAYPFQALANIGI
- Rank (after) [12]: 437
- Rank (before) [13]: 2252

Sequence: RNLAGLVYDCLTKTGA
- Rank (after) [5]: 407
- Rank (before) [6]: 2606
